The nature of series [1]: Oral bioavailability, pharmacokinetic screening (i.v./p.o. cross-over, LC/MS/MS). In kind it is in vivo. To be noted: male, rat, plasma, Sprague-Dawley rats. The source says:
The water used for these experiments was of highest quality obtained from a reversed osmosis primary system in combination with a Milli-Q water secondary treatment system (Millipore, Bedford, Mass., USA). Methanol was super gradient quality obtained from Labscan Ltd. (Dublin, Ireland). Formic acid p.a. (98-100%) was obtained from Merck (Darmstadt, Germany). Heptafluorobuturicacid, HPLC grade wAs obtained from Pierce (Rockford, Ill., USA). EDTA stabilised plasma from rat (Sprague-Dawley) was obtained from Harlan Sera Lab Ltd. (Loughborough, UK). Blood samples were collected in potassium EDTA coated microtainers from BD Vacutainer Systems (Plymouth, UK). Sample preparation by ultra filtration was performed using Microcon centrifugal filter devices with a molecular weight cut off of 3000 obtained from Millipore (Bedford, Mass., USA).
The LC/MS/MS analysis was performed on a Waters Alliance 2790 HPLC instrument in combination with a Quattro Ultima mass spectrometer from Micromass (Manchester, UK). Both the LC and MS were controlled by MassLynx 3.5 software. The LC separations prior to MS/MS detection were performed on an XTerra MS C18 (2.0×50 mm), 3.5 μm particles, (Waters, Milford, Mass., USA).
Twelve male Sprague-Dawley rats (approx 350 g) were obtained from M&B (Denmark) and catheters were inserted into the femoral vein and artery during Hypnorm®-Dormicum® anaesthesia. After surgery, the rats were allowed to recover for five days before drug administration was initiated.
The dipeptides (Compound 22, Compound 21, Compound 23, Compound 96, Compound 95 and Compound 54) were obtained as the TFA salts and dissolved in PBS (2.6 mM KCl, 137 mM NaCl, 1.5 mM KH2PO4 and 8.2 mM Na2HPO4 adjusted to pH=7.4) to give concentrations of 500 μM. The dosing volumes were 1 mL/kg corresponding to doses of 500 nmol/kg, respectively. After each experiment the dosing solutions were diluted in 0.5% formic acid in water and analysed by LC/MS/MS for their content of drug substance. The concentrations of drug substance in the dosing solutions were calculated from the responses of standards in the range from 1 to 1000 nM.
The drug substances were administered to two animals as i.v. and p.o. bolus in a cross-over study design. The p.o. dose was administered to rats fasted for a 17 hours period prior to drug administration. The animals were allowed to rest for 48 hours in between drug administrations. After the first experiment the rats received a blood transfusion with heparin treated blood.
Prior to drug administration (5 min) the rats received 500 IU heparin as an i.v. bolus and a control blood sample was collected. After drug administration blood samples of approx. 250 μL were collected from the femoral artery at the following time points; before dose (B.D.), 5, 15, 30, 60, 120, 180 and 240 min after i.v. administration and at B.D., 10, 30, 50, 80, 120, 180, 240, and 300 min after p.o. administration. The blood samples were stored on ice until centrifugation for 5 min at 10.000×g (4° C.) and the plasma (100 μL) were transferred to 1.5 mL polypropylene tubes and stored at −20° C. until sample preparation and LC/MS/MS analysis.
The plasma samples were thawed on ice, and 100 μL plasma was mixed with 100 μL 1% (v/v) formic acid and transferred to microcon YM-3 filter units. The samples were then centrifuged for 1 hr at 8.300×g at room temperature. The filtrates were collected in 300 μL autosampler vials and stored at 4° C. until injection (40 μL) onto the LC column. The chromatography was performed at 50° C. using a linear gradient from 100% buffer A (0.1% formic acid in water) to 100% buffer B (0.1% formic acid in acetonitrile) in 4 min, followed by 3 min wash using buffer B and finally a reequilibration period for 7 min using buffer A. The detection of the drug substances were performed by MS/MS using argon as collision gas (1.3×10^−3 mbar). […]

Series [2] relates to calcium-induced arrhythmias (2nd degree AV block). Kind of series: Standard calcium-induced arrhythmia assay. Type of series: in vivo, Male NMRI mice. The note with it: mice, i.v. 3 min before CaCl2 infusion; (tarr(testcompound)−tarr(vehicle))×100/tarr(vehicle). The procedure: Peptides suitable for administration to cardiac cells can be identified in an in vivo model of calcium-induced arrhythmias according to the model of Lynch et al. (1981) J Cardiovasc. Pharmacol. 3: 49-60. Mice (25-30 g) are anaesthetized with a neurolept anaesthetic combination and an i.v. cannula is inserted into the tail vein. A lead II ECG signal is recorded continuously by positioning a stainless steel ECG electrodes on the right forelimb and on the left hind limb. The ground electrode is placed on the right hind limb. The signal is amplified (×5.000-10.000) and filtered (0.1-150 Hz) via a Hugo Sachs Electronic model 689 ECG module. The analog signal is digitized via a 12 bit data acquisition board (Data Translation model DT321) and sampled at 1000 Hz using the Notocord HEM 3.1 software for Windows NT. After a 10-minute equilibration period, the test sample of peptide is injected into the tail vein. Mice pre-treated with buffer are tested as a measure of the control level in untreated animals. The injection volume is 100 μl in all experiments.
Infusion of CaCl2 (30 mg/ml, 0.1 ml/min≈100 mg/kg/min (calcium chloride-2-hydrate, Riedel-de Haën, Germany)) is started 3 min after i.v. administration of drug or vehicle. The time lag to onset of 2nd degree AV-block is determined as the time from the start of CaCl2 infusion until the first arrhythmic event occurs. An event of 2nd degree AV-block is defined as intermittent failure of the AV conduction characterised by a P-wave without the concomitant QRS complex.
Responses are expressed relative to the time until 2nd degree AV-block occurred in vehicle treated mice. The maximal effect of compounds (e.g., peptides, AAP, AAP10 or controls) is determined. […] Preferably, […], the peptides provide at least about 40% of the activity of AAP, for example at least about 50% of the activity of AAP, such as about 60% of the activity of AAP, for example at least about 70% of the activity of AAP, such as at least about 80% of the activity of AAP, for example at least about 90% of the activity of AAP, for example at least about substantially the same activity of AAP, such as about 110% of the activity of AAP, for example at least about 120% of the activity of AAP, such as at least about 130% of the activity of AAP, for example at least about 140% of the activity of AAP, such as about 150% of the activity of AAP, for example at least about 160% of the activity of AAP, such as at least about 170% of the activity of AAP, for example at least about 180% of the activity of AAP, preferably at least about 190% of the activity of AAP, more preferably at least about 200 or greater % of the activity of AAP (i.e., the peptides show time lags of approximately the same duration as induced by AAP).
The anti-arrhythmic effect of the dipeptides was determined in a model of calcium-induced arrhythmias according to the model of Lynch et al.. Male NMRI mice (25-30 g; Bomholdtgaard, LI. Skendsved, Denmark) were anaesthetised with a neurolept anaesthetic combination (Hypnorm® (fentanyl citrate 0.315 mg/ml and fuanisone 10 mg/ml)+midazolam (5 mg/ml)). Commercial solutions of Hypnorm® and midazolam were diluted 1:1 in distilled water, and one part diluted Hypnorm® was mixed with one part diluted midazolam. Anaesthesia was induced by s.c. administration of this solution in a dose of 50-75 μl/10 gram mouse.
An i.v. cannula was inserted into the tail vein. The lead II ECG signal was recorded continuously by positioning of stainless steel ECG electrodes on the right forelimb and on the left hind limb. The ground electrode was placed on the right hind limb. The signal was amplified (×5.000-10.000) and filtered (0.1-150 Hz) via a Hugo Sachs Electronic model 689 ECG module. The analogue signal was digitised via a 12-bit data acquisition board (Data Translation model DT321) and sampled at 1000 Hz using the Notocord HEM 3.1 software for Windows NT. […]

In series [3] the test system is Human primary osteoblasts. Kind of series: Osteoblast activity (ALP assay). The note with it: cell lysate, stimulated 1×10^−13 to 1×10^−6 for the last 4 days, compared to vehicle treated control cultures. Type of series: cell-based. The procedure:
Cells also can be measured for the presence of alkaline phosphatase activity to provide a general measure of osteoblast activity. In one aspect, cells are plated in 96-well plates at a concentration of 8000 cells/well (hOB) or 3000 cells/well (ROS) in 200 μl normal culture medium. On day 4 (or day 3 for ROS cells), cells are washed with 200 μl MEM, 0.1% BSA (Sigma, Cat.No. A-9418). Samples comprising a suitable medium (e.g., 200 μl MEM, 0.1% BSA) containing various concentrations of peptides, control, AAP or AAP10 are added to the cells, and culture is continued for about 4 days (2 days for ROS cells).
On about day 8 (preferably day 5 for ROS cells), cells are assayed for alkaline phosphatase using an Alkaline Phosphatase (ALP) assay such as is known in the art. ALP assays are generally colorimetric endpoint methods for measuring enzyme activity, and can be performed using an Alkaline Phosphatase Kit (Sigma, Cat.No. 104-LL). Preferably, cells are washed once with 200 μl PBS+Ca, Mg, 100 μl Alkaline Buffer Solution is added to each well and the cells are incubated at 37° C. for 10 minutes. 100 μl Substrate Solution is subsequently added to each well and the plate is incubated at 37° C. for 30 min. 100 μl 2.0 N NaOH is added to each well to stop the reaction. Absorbance is measured using a plate reader at 405 nm.
Human primary osteoblasts were obtained from bone marrow biopsies of the posterior iliac spine from voluntary donors. Cells were used at 6 weeks of culturing. Cells were cultured in 24-well plates in an 8 days process and stimulated with the test compounds in concentrations from 1×10^−13 to 1×10^−6 for the last 4 days of the experiment. Cell lysate was collected for determination of ALP activity. hOB cells from 10-15 donors were used for the experiments. For ALP measurements a commercially available kit (Alkaline Phosphatase Kit, Sigma-Aldrich Denmark A/S) was used. All determinations were performed according to the manufacturer's recommendations.
ALP was determined on cell lysate collected at termination of the experiment. Measurements were compared with and to vehicle treated control cultures.
Data are presented as means and standard deviations or medians and percentiles as appropriate. Two-way ANOVA is performed using Fisher's LSD test for post-hoc comparisons, using a 0.05 level of significance.

Setting [4] is: oral, TFA salts in PBS, 500 nmol/kg i.v. and p.o. bolus, p.o. fasted 17 hours, dose normalised AUCpo/AUCiv, read-out: F (%) Mean (mean bioavailability).
The mark [5] stands for this setting: oral administration 500 nmol/kg, read-out: bioavailability.

Like-named read-outs stand apart in the source and are kept apart here. Where a SMILES comes first, the peptide text is derived from it. [ ]: non-standard residue; d: D form. The star is where a group is joined. Bz = O=C(c1ccccc1)*

Regarding `COc1ccc(C(=O)NCCCC[C@@H](N)C(=O)NCC(=O)O)cc1` [Compound 21, H-D-Lys(4-methoxybenzoyl)-Gly-OH], the bioavailability was 2.6% in series [1] (setting [4]) and 2 to 8% in series [1] (setting [5]). Further, the “% response (time lag to onset of 2nd degree AV block relative to vehicle)” value in series [2] was 55.0%.
Consider `N[C@H](CCCCNC(=O)c1ccc([N+](=O)[O-])cc1)C(=O)NCC(=O)O` [Compound 22, H-D-Lys(4-nitrobenzoyl)-Gly-OH], for which the values for the bioavailability in series [1] (setting [4]) and in series [1] (setting [5]) were 31% and 10 to 31%, respectively. Further, the “ALP activity relative to vehicle control (ratio)” value in series [3] came out at 1.12. The “% response (time lag to onset of 2nd degree AV block relative to vehicle)” value in series [2] worked out at 52.0%.
The corresponding values for `N[C@H](CCCCNC(=O)c1ccccc1)C(=O)NCC(=O)O` [Compound 23, H-D-Lys(benzoyl)-Gly-OH] (H-[dK](Bz)-Gly-OH) are 10%, 10 to 31%, 1.08 and −8.0%.
Turning to `CC(C)(C)c1ccc(C(=O)NCCCC[C@@H](N)C(=O)NCC(=O)O)cc1` [Compound 54, H-D-Lys(4-t-butylbenzoyl)-Gly-OH], the bioavailability is 7.2% in series [1] (setting [4]) and 2 to 8% in series [1] (setting [5]). The “% response (time lag to onset of 2nd degree AV block relative to vehicle)” value in series [2] is listed as 61.3%.
For the compound `COc1ccc(CNC(=O)C[C@@H](N)C(=O)N[C@@H](C)C(=O)O)cc1` [Compound 95, H-D-Asn(NH(4-methoxybenzyl))-Ala-OH], the bioavailability is 29% in series [1] (setting [4]) and 10 to 31% in series [1] (setting [5]). Also, the “ALP activity relative to vehicle control (ratio)” value in series [3] came to 1.14. In addition, the “% response (time lag to onset of 2nd degree AV block relative to vehicle)” value in series [2] is 0.3%.
`C[C@H](NC(=O)[C@H](N)CC(=O)NCc1ccc([N+](=O)[O-])cc1)C(=O)O` [Compound 96, H-D-Asn(NH(4-nitrobenzyl))-Ala-OH]: the bioavailability in series [1] (setting [4]) is 15%; in series [1] (setting [5]), 10 to 31%. In addition, the “% response (time lag to onset of 2nd degree AV block relative to vehicle)” value in series [2] was found to be 54%.
Take “H-Asn(NH(4-methoxybenzyl))-D-Ala-OH [Compound 80]”: in series [2], the “% response (time lag to onset of 2nd degree AV block relative to vehicle)” value was determined as 33%.
On the same count and under the same terms, under “H-Gly-Lys(4-cyanobenzoyl)-OH [Compound 3]” stands 37.0%; under “H-Gly-Lys(4-methoxybenzoyl)-OH [Compound 4]”, 69.0%.
For “H-Gly-Lys(4-nitrobenzoyl)-OH [Compound 1]”, in series [3], the “ALP activity relative to vehicle control (ratio)” value is given as 1.08. For the same compound, in series [2], the “% response (time lag to onset of 2nd degree AV block relative to vehicle)” value was determined as 52.0%.
For the compound “H-Lys(4-nitrobenzoyl)-Gly-OH [Compound 7]”, the “% response (time lag to onset of 2nd degree AV block relative to vehicle)” value in series [2] stood at 40%.
